US10723727B2, “Tubulysin analogs and methods for their preparation” (priority 2016, dated 2020)

Tests used:
[1] = test system: HT-29 cells; test: In vitro cell assay (MTS cell viability), HT-29 (target non-expressing); type: cell-based; settings: Homo sapiens, HT-29, 96 h, free compounds; 96 hours after treatment; read-out: HT29 IC50
Method: (§1) In Vitro Cell Assay Procedure
(§2) Target expressing (BT474 (breast cancer), N87 (gastric cancer), HCC1954 (breast cancer), MDA-MB-361-DYT2 (breast cancer)) or non-expressing (HT-29) cells were seeded in 96-well cell culture plates for 24 hours before treatment. Cells were treated with 3-fold serially diluted antibody-drug conjugates or free compounds (i. e. no antibody conjugated to the drug) in duplicate at 10 concentrations. Cell viability was determined by CellTiter 96® AQueous One Solution Cell Proliferation MTS Assay (Promega, Madison Wis.) 96 hours after treatment. Relative cell viability was determined as percentage of untreated control. IC50 values were calculated using a four parameter logistic model #203 with XLfit v4. 2 (IDBS, Guildford, Surry, UK).

[2] = molecular target: T1, tubulin/RB3-stathmin-like-domain (RB3-SLD-tdm) complex (Sus scrofa, UniProt P02550+P02554); test: Tubulin Peptide-Binding Site Competition Assay (fluorescence polarization); set-up: species or system Porcine; settings: FP competition with BODIPY-labeled vinca peptide probe; read after five hours at 22° C.; read-out: Tubulin Peptide-Binding Site Competition Assay IC50
T1 construct: purchased Cytoskeleton, Inc. T240; host or cells: RB3-SLD was made in house in E. coli
In short: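 The BODIPY vinca-peptide probe was premixed with test compound and then added to porcine tubulin/RB3-SLD, at final concentrations of 3 nM probe, 6 nM tubulin and 100 nM RB3-SLD. The buffer was PIPES pH 7.0 with Tween 20, MgCl2 and EGTA, and 11-point dilutions were run in duplicate. IC50 was fitted from the fluorescence polarization decrease and converted to Ki.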

[3] = test system: MDA-MB-361-DYT2 (breast cancer) cells; test: In vitro cell assay (MTS cell viability), MDA-MB-361-DYT2; type: cell-based; settings: 96 h, free compounds; 96 hours after treatment
Method: as §1, §2

[4] = test system: N87 (gastric cancer) cells; test: In vitro cell assay (MTS cell viability), N87; type: cell-based; settings: 96 h, free compounds; 96 hours after treatment
Method: as §1, §2

Row | Compound | IC50 [1] [nM] | IC50 [2] [nM] | IC50 [3] [nM] | IC50 [4] [nM]
1 | CC[C@H](C)[C@H](NC(=O)C12CC(CN1C)C2)C(=O)N(C)[C@H](C[C@@H](OC(C)=O)c1nc(C(=O)N[C@@H](Cc2ccccc2)C[C@H](C)C(=O)OC)cs1)C(C)C [#B17, methyl (2S,4R)-4-[({2-[(1R,3R)-1-(acetyloxy)-4-methyl-3-(methyl{N-[(2-methyl-2-azabicyclo[2.1.1]hex-1-yl)carbonyl]-L-isoleucyl}amino)pentyl]-1,3-thiazol-4-yl}carbonyl)amino]-2-methyl-5-phenylpentanoate] | 0.037 | 19.2 | 0.04 | 0.386
2 | CC[C@H](C)[C@H](NC(=O)[C@@]1(C)CCCN1C)C(=O)N(C)[C@H](C[C@@H](O)c1nc(C(=O)N[C@@H](Cc2ccc(N)cc2)C[C@H](C)C(=O)O)cs1)C(C)C [#B32, 1,2-dimethyl-D-prolyl-N-[(1R,3R)-1-(4-{[(2R,4S)-1-(4-aminophenyl)-4-carboxypentan-2-yl]carbamoyl}-1,3-thiazol-2-yl)-1-hydroxy-4-methylpentan-3-yl]-N-methyl-L-isoleucinamide] | > 100 | 12.3 | > 100 | > 100
3 | CC[C@H](C)[C@H](NC(=O)[C@@]1(C)CCCN1C)C(=O)N(C)[C@H](C[C@@H](OC(C)=O)c1nc(C(=O)NCCc2cscn2)cs1)C(C)C [#B76, 1,2-dimethyl-D-prolyl-N-[(1R,3R)-1-(acetyloxy)-4-methyl-1-(4-{[2-(1,3-thiazol-4-yl)ethyl]carbamoyl}-1,3-thiazol-2-yl)pentan-3-yl]-N-methyl-L-isoleucinamide] | 37.4 | 19.9 | 42 | 87.7
4 | CC[C@H](C)[C@H](NC(=O)[C@@]1(C)CCCN1C)C(=O)N(C)[C@H](C[C@@H](OC(C)=O)c1nc(C(=O)N[C@@H](Cc2ccccc2)C(O)c2nccs2)cs1)C(C)C (stereo partly drawn) [#B62, 1,2-dimethyl-D-prolyl-N-[(1R,3R)-1-(acetyloxy)-1-(4-{[(2S)-1-hydroxy-3-phenyl-1-(1,3-thiazol-2-yl)propan-2-yl]carbamoyl}-1,3-thiazol-2-yl)-4-methylpentan-3-yl]-N-methyl-L-isoleucinamide] | 2.26 | 4.7 | 2.65 | 10.4
5 | CC[C@H](C)[C@H](NC(=O)C12CCCC(CCC1)N2C)C(=O)N(C)[C@H](C[C@@H](OC(C)=O)c1nc(C(=O)N[C@@H](Cc2ccccc2)C[C@H](C)C(=O)OC)cs1)C(C)C [#B16, methyl (2S,4R)-4-[({2-[(1R,3R)-1-(acetyloxy)-4-methyl-3-(methyl{N-[(9-methyl-9-azabicyclo[3.3.1]non-1-yl)carbonyl]-L-isoleucyl}amino)pentyl]-1,3-thiazol-4-yl}carbonyl)amino]-2-methyl-5-phenylpentanoate] | < 0.026 | 10.4 | < 0.064 | < 0.042
6 | CCNC(=O)O[C@H](C[C@H](C(C)C)N(C)C(=O)[C@@H](NC(=O)C12CCC(CC1)N2C)[C@@H](C)CC)c1nc(C(=O)N[C@@H](Cc2ccc(N)cc2)C[C@H](C)C(=O)O)cs1 [#B26, (2S,4R)-5-(4-aminophenyl)-4-{[(2-[(6R,8R,11S)-11-[(2S)-butan-2-yl]-9-methyl-13-(7-methyl-7-azabicyclo[2.2.1]hept-1-yl)-4,10,13-trioxo-8-(propan-2-yl)-5-oxa-3,9,12-triazatridecan-6-yl]-1,3-thiazol-4-yl}carbonyl)amino]-2-methylpentanoic acid] | 8.83 | < 0.5 | 8.27 | 7.78
7 | CC[C@H](C)[C@H](NC(=O)[C@@]1(C)CCCN1C)C(=O)N(C)[C@H](C[C@@H](OC(C)=O)c1nc(C(=O)N[C@@H](Cc2ccccc2)c2nccs2)cs1)C(C)C [#B78, 1,2-dimethyl-D-prolyl-N-[(1R,3R)-1-(acetyloxy)-4-methyl-1-(4-{[(1S)-2-phenyl-1-(1,3-thiazol-2-yl)ethyl]carbamoyl}-1,3-thiazol-2-yl)pentan-3-yl]-N-methyl-L-isoleucinamide] | 14.5 | 9.3 | 19.9 | 39.9
8 | CC[C@H](C)[C@H](NC(=O)[C@@]1(C)CCCN1C)C(=O)N(C)[C@H](C[C@@H](OC(C)=O)c1nc(C(=O)N[C@H](CNS(C)(=O)=O)Cc2ccccc2)cs1)C(C)C [#B58, 1,2-dimethyl-D-prolyl-N-{(1R,3R)-1-(acetyloxy)-4-methyl-1-[4-({(2S)-1-[(methylsulphonyl)amino]-3-phenylpropan-2-yl}carbamoyl)-1,3-thiazol-2-yl]pentan-3-yl}-N-methyl-L-isoleucinamide] | 1.49 | 5 | 2.26 | 5.63
9 | CC[C@H](C)[C@H](NC(=O)[C@@]1(C)CCCN1C)C(=O)N(C)[C@H](C[C@@H](OC(C)=O)c1nc(C(=O)N[C@@H](Cc2ccccc2)[C@@H](O)C(=O)OC)cs1)C(C)C [#B51, 1,2-dimethyl-D-prolyl-N-[(1R,3R)-1-(acetyloxy)-1-(4-{[(2S,3R)-3-hydroxy-4-methoxy-4-oxo-1-phenylbutan-2-yl]carbamoyl}-1,3-thiazol-2-yl)-4-methylpentan-3-yl]-N-methyl-L-isoleucinamide] | 2.2 | 11.7 | 2.94 | 7.78
10 | CC[C@H](C)[C@H](NC(=O)[C@@]1(C)CCCN1C)C(=O)N(C)[C@H](C[C@@H](OC(C)=O)c1nc(C(=O)NC(CO)Cc2ccccc2)cs1)C(C)C (stereo partly drawn) [#B50, 1,2-dimethyl-D-prolyl-N-[(1R,3R)-1-(acetyloxy)-1-{4-[(1-hydroxy-3-phenylpropan-2-yl)carbamoyl]-1,3-thiazol-2-yl}-4-methylpentan-3-yl]-N-methyl-L-isoleucinamide] | 8.84 | 8.6 | 12.1 | 28.1
11 | CC[C@H](C)[C@H](NC(=O)[C@@]1(C)CCCN1C)C(=O)N(C)[C@H](C[C@@H](O)c1nc(C(=O)N[C@@H](Cc2ccccc2)C[C@H](C)C(=O)O)cs1)C(C)C [#B15, 1,2-dimethyl-D-prolyl-N-[(1R,3R)-1-(4-{[(2R,4S)-4-carboxy-1-phenylpentan-2-yl]carbamoyl}-1,3-thiazol-2-yl)-1-hydroxy-4-methylpentan-3-yl]-N-methyl-L-isoleucinamide] | > 100 | 7 | > 100 | > 100
12 | CC[C@H](C)[C@H](NC(=O)[C@@]1(C)CCCN1C)C(=O)N(C)[C@H](C[C@@H](OC(C)=O)c1nc(C(=O)NCCn2nnc3ccccc32)cs1)C(C)C [#B79, 1,2-dimethyl-D-prolyl-N-[(1R,3R)-1-(acetyloxy)-1-(4-{[2-(1H-benzotriazol-1-yl)ethyl]carbamoyl}-1,3-thiazol-2-yl)-4-methylpentan-3-yl]-N-methyl-L-isoleucinamide] | 4.39 | 8.6 | 5.69 | 11.2
13 | CC[C@H](C)[C@H](NC(=O)[C@@]1(C)CCCN1C)C(=O)N(C)[C@H](C[C@@H](OC(C)=O)c1nc(C(=O)N[C@H](COCc2ccccc2)Cc2ccccc2)cs1)C(C)C [#B61, 1,2-dimethyl-D-prolyl-N-[(1R,3R)-1-(acetyloxy)-1-(4-{[(2S)-1-(benzyloxy)-3-phenylpropan-2-yl]carbamoyl}-1,3-thiazol-2-yl)-4-methylpentan-3-yl]-N-methyl-L-isoleucinamide] | 14.7 | 19.1 | 23.4 | 38.5
14 | CCNC(=O)O[C@H](C[C@H](C(C)C)N(C)C(=O)[C@@H](NC(=O)[C@@]1(C)CCCN1C)[C@@H](C)CC)c1nc(C(=O)N[C@@H](Cc2ccc(N)cc2)C[C@H](C)C(=O)O)cs1 [#B21, 1,2-dimethyl-D-prolyl-N-{(1R,3R)-1-(4-{[(2R,4S)-1-(4-aminophenyl)-4-carboxypentan-2-yl]carbamoyl}-1,3-thiazol-2-yl)-1-[(ethylcarbamoyl)oxy]-4-methylpentan-3-yl}-N-methyl-L-isoleucinamide] | 1.62 | 1.9 | 1.93 | 1.87
15 | CC[C@H](C)[C@H](NC(=O)[C@@]1(C)CCCN1C)C(=O)N(C)[C@H](C[C@@H](OC(=O)NC)c1nc(C(=O)N[C@@H](Cc2ccc(N)cc2)C[C@H](C)C(=O)O)cs1)C(C)C [#B30, 1,2-dimethyl-D-prolyl-N-{(1R,3R)-1-(4-{[(2R,4S)-1-(4-aminophenyl)-4-carboxypentan-2-yl]carbamoyl}-1,3-thiazol-2-yl)-4-methyl-1-[(methylcarbamoyl)oxy]pentan-3-yl}-N-methyl-L-isoleucinamide] | 1.81 | 3.2 | 3.27 | 2.67
16 | CC[C@H](C)[C@H](NC(=O)C12CC(CCN1C)C2)C(=O)N(C)[C@H](C[C@@H](OC(C)=O)c1nc(C(=O)N[C@@H](Cc2ccccc2)C[C@H](C)C(=O)OC)cs1)C(C)C [#B14, methyl (2S,4R)-4-[({2-[(1R,3R)-1-(acetyloxy)-4-methyl-3-(methyl{N-[(2-methyl-2-azabicyclo[3.1.1]hept-1-yl)carbonyl]-L-isoleucyl}amino)pentyl]-1,3-thiazol-4-yl}carbonyl)amino]-2-methyl-5-phenylpentanoate] | 0.063 | 11.5 | 0.017 | 0.337
